From US20230303599A1, “PRODRUGS OF PHOSPHONAMIDE NUCLEOTIDE ANALOGUES AND THEIR PHARMACEUTICAL USE” (priority 2020, published 2023) come the findings set out here.

The nature of the data set: Kinetic solubility analysis. The format is physicochemical. As to conditions: 1× PBS, 24.2 °C, aqueous buffer, kinetic from dmso stock; pH 7.4 PBS, 1% DMSO, 24-hour incubation at ambient temperature. The protocol:
Example 108: Kinetic Solubility Analysis
Buffer Preparation: 0.1 N HCl: Hydrochloric acid, 0.1 N standardized solution (MP Biomedicals part number 199569). 1×PBS, pH 7.4: Phosphate Buffered Saline (PBS) solution 10× (Fisher Bioreagent part number BP399-500) 50 mL was added to approximately 450 mL HPLC grade H2O. The volume of the solution was then adjusted to 500 mL for a total dilution factor of 1:10 and a final PBS concentration of 1×.
The final DMSO concentration was 1.0% (v/v) and maximum theoretical compound concentration is 100 μM (for compound stock concentration of 10 mM). The filter plate was sealed. Following 24-hour incubation at ambient temperature (24.2-27.5° C.), the samples were vacuum filtered and the filtrates were collected in a 96 well polypropylene plate for analysis. The collection plate was sealed for analysis. Filtrates were injected into the Antek 8060 chemiluminescent nitrogen detector for quantification. The results are reported in μM.
The filtrates were quantified with respect to this calibration curve. Each calculated solubility value was corrected for background nitrogen present in the DMSO and in the medium used to prepare the sample. All reported values for compounds containing adjacent nitrogen atoms in a ring structure were increased by approximately 25%.

In brackets after ≈: the same amount, converted by molar mass. A value given as a limit tells only on which side of the number the result lay.

The term solubility (kinetic) denotes the concentration staying in solution when a stock, usually in DMSO, is diluted into the medium.

The molecule `C[C@H](Cn1cnc2c(N)ncnc21)OCP(=O)(NC(C)(C)C(=O)OCC(C)(C)C)NC(C)(C)C(=O)OCC(C)(C)C` [Example 5] returned a kinetic solubility at 24 h of 53 µg/mL (≈ 88.7 µM).

In turn, `CC(C)CCOC(=O)C(C)(C)NP(=O)(CO[C@H](C)Cn1cnc2c(N)ncnc21)NC(C)(C)C(=O)OCCC(C)C` [Example 6, Diisopentyl 2,2′-(((((1-(6-amino-9H-purin-9-yl)propan-2-yl)oxy)methyl)phosphoryl)bis(azanediyl))(R)-bis(2-methylpropanoate)] yielded a kinetic solubility at 24 h of 49 µg/mL (≈ 82 µM).

The molecule `CCC(CC)CCOC(=O)C(C)(C)NP(=O)(CO[C@H](C)Cn1cnc2c(N)ncnc21)NC(C)(C)C(=O)OCCC(CC)CC` [Example 7, Bis(3-ethylpentyl) 2,2′-(((((1-(6-amino-9H-purin-9-yl)propan-2-yl)oxy)methyl)phosphoryl)bis(azanediyl))(R)-bis(2-methylpropanoate)] had a kinetic solubility at 24 h of 7 µg/mL (≈ 10.7 µM).

In the case of `C[C@H](Cn1cnc2c(N)ncnc21)OCP(=O)(NC(C)(C)C(=O)OCCC(C)(C)C)NC(C)(C)C(=O)OCCC(C)(C)C` [Example 8, Bis(3,3-dimethylbutyl) 2,2′-(((((1-(6-amino-9H-purin-9-yl)propan-2-yl)oxy)methyl)phosphoryl)bis(azanediyl))(R)-bis(2-methylpropanoate)], the kinetic solubility at 24 h was 50 µg/mL (≈ 79.9 µM).

The molecule `CCCCCCOC(=O)[C@](C)(CC)NP(=O)(CO[C@H](C)Cn1cnc2c(N)ncnc21)N[C@@](C)(CC)C(=O)OCCCCCC` [Example 10, Dihexyl 2,2′-((((((R)-1-(6-amino-9H-purin-9-yl)propan-2-yl)oxy)methyl)phosphoryl)bis(azanediyl))(2S,2′S)-bis(2-methylbutanoate)] returned a solubility (kinetic) at 24 h of 7 µg/mL (≈ 10.7 µM).

`CCCCCCOC(=O)[C@](C)(Cc1ccccc1)NP(=O)(CO[C@H](C)Cn1cnc2c(N)ncnc21)N[C@@](C)(Cc1ccccc1)C(=O)OCCCCCC` [Example 11, Dihexyl 2,2′-((((((R)-1-(6-amino-9H-purin-9-yl)propan-2-yl)oxy)methyl)phosphoryl)bis(azanediyl))(2S,2'S)-bis(2-methyl-3-phenylpropanoate)] yielded a solubility (kinetic) at 24 h of under 1 µg/mL.

As for `CCCCCCOC(=O)C(C)(C)NP(=O)(CO[C@H](C)Cn1cnc2c(N)ncnc21)NC1(C(=O)OCCCCCC)CC1` (stereo partly drawn) [Example 20, Hexyl 1-((((((R)-1-(6-amino-9H-purin-9-yl)propan-2-yl)oxy)methyl)((1-(hexyloxy)-2-methyl-1-oxopropan-2-yl)amino)phosphoryl)amino)cyclopropane-1-carboxylate], the kinetic solubility at 24 h was 49 µg/mL (≈ 78.6 µM).

As to `CCCCCCOC(=O)C(C)(C)NP(=O)(CO[C@H](C)Cn1cnc2c(N)ncnc21)NC(C)(C)C(=O)O[C@H]1CC[C@H](C(F)(F)F)CC1` (stereo partly drawn) [Example 22, Hexyl 2-((((((R)-1-(6-amino-9H-purin-9-yl)propan-2-yl)oxy)methyl)((2-methyl-1-oxo-1-((trans-4-(trifluoromethyl)cyclohexyl)oxy)propan-2-yl)amino)phosphoryl)amino)-2-methylpropanoate], the solubility (kinetic) at 24 h came to 36 µg/mL (≈ 52 µM).

In the case of `C[C@H](Cn1cnc2c(N)ncnc21)OCP(=O)(NC(C)(C)C(=O)OCCCCC(F)(F)F)NC(C)(C)C(=O)OCCCCC(F)(F)F` [Example 25, Bis(5,5,5-trifluoropentyl) 2,2′-(((((1-(6-amino-9H-purin-9-yl)propan-2-yl)oxy)methyl)phosphoryl)bis(azanediyl))(R)-bis(2-methylpropanoate)], the solubility (kinetic) at 24 h came to 84 µg/mL (≈ 119 µM).

Regarding `C[C@H](Cn1cnc2c(N)ncnc21)OCP(=O)(NC(C)(C)C(=O)O[C@H]1C[C@H](C(F)(F)F)C1)NC(C)(C)C(=O)O[C@H]1C[C@H](C(F)(F)F)C1` [Example 26, Bis(trans-3-(trifluoromethyl)cyclobutyl) 2,2′-((((((R)-1-(6-amino-9H-purin-9-yl)propan-2-yl)oxy)methyl)phosphoryl)bis(azanediyl))bis(2-methylpropanoate)], the solubility (kinetic) at 24 h was 78 µg/mL (≈ 111 µM). The solubility kinetic at 24 h values of the last two molecules are within 1.5-fold of each other.

Molecule `CCCCCCOC(=O)C(C)(C)NP(=O)(CO[C@H](C)Cn1cnc2c(NC(C)=O)ncnc21)NC(C)(C)C(=O)OCCCCCC` [Example 28, Dihexyl 2,2′-(((((1-(6-acetamido-9H-purin-9-yl)propan-2-yl)oxy)methyl)phosphoryl)bis(azanediyl))(R)-bis(2-methylpropanoate)] showed a kinetic solubility at 24 h of 55 µg/mL (≈ 82.4 µM).

`CCCCCCOC(=O)C(C)(C)NP(=O)(CO[C@H](C)Cn1cnc2c(NC(=O)CCC)ncnc21)NC(C)(C)C(=O)OCCCCCC` [Example 29, Dihexyl 2,2′-(((((1-(6-butyramido-9H-purin-9-yl)propan-2-yl)oxy)methyl)phosphoryl)bis(azanediyl))(R)-bis(2-methylpropanoate)] showed a kinetic solubility at 24 h of 26 µg/mL (≈ 37.4 µM).

The molecule `CCCCCCOC(=O)C(C)(C)NP(=O)(CO[C@H](C)Cn1cnc2c(NC(=O)OCCCCC)ncnc21)NC(C)(C)C(=O)OCCCCCC` [Example 32, Dihexyl 2,2′-(((((1-(6-(((pentyloxy)carbonyl)amino)-9H-purin-9-yl)propan-2-yl)oxy)methyl)phosphoryl)bis(azanediyl))(R)-bis(2-methylpropanoate)] registered a solubility (kinetic) at 24 h of under 1 µg/mL.

In the case of `CCCCOC(=O)C(C)(C)NP(=O)(CO[C@H](C)Cn1cnc2c(N)ncnc21)NC(C)(C)C(=O)OCCCC` [Example 38, Dibutyl 2,2′-(((((1-(6-amino-9H-purin-9-yl)propan-2-yl)oxy)methyl)phosphoryl)bis(azanediyl))(R)-bis(2-methylpropanoate)], the kinetic solubility at 24 h turned out to be 45 µg/mL (≈ 79 µM).

Molecule `C[C@H](Cn1cnc2c(N)ncnc21)OCP(=O)(NC(C)(C)C(=O)OC1CCCCC1)NC(C)(C)C(=O)OC1CCCCC1` [Example 40, Dicyclohexyl 2,2′-(((((1-(6-amino-9H-purin-9-yl)propan-2-yl)oxy)methyl)phosphoryl)bis(azanediyl))(R)-bis(2-methylpropanoate)] displayed a solubility (kinetic) at 24 h of 57 µg/mL (≈ 91.7 µM).

For the molecule `C[C@H](Cn1cnc2c(N)ncnc21)OCP(=O)(NC(C)(C)C(=O)OC1CC2(CCC2)C1)NC(C)(C)C(=O)OC1CC2(CCC2)C1` (stereo partly drawn) [Example 41, Di(spiro[3.3]heptan-2-yl) 2,2′-(((((1-(6-amino-9H-purin-9-yl)propan-2-yl)oxy)methyl)phosphoryl)bis(azanediyl))(R)-bis(2-methylpropanoate)], the kinetic solubility at 24 h turned out to be 54 µg/mL (≈ 83.6 µM). The solubility kinetic at 24 h values of the last two molecules are within 1.5-fold of each other.

Take `C[C@H](Cn1cnc2c(N)ncnc21)OCP(=O)(NC(C)(C)C(=O)OC1CC(C)(C)C1)NC(C)(C)C(=O)OC1CC(C)(C)C1` [Example 42, Bis(3,3-dimethylcyclobutyl) 2,2′-(((((1-(6-amino-9H-purin-9-yl)propan-2-yl)oxy)methyl)phosphoryl)bis(azanediyl))(R)-bis(2-methylpropanoate)]: the solubility (kinetic) at 24 h is 54 µg/mL (≈ 86.9 µM).

Turning to `CC(C)OC(=O)C(C)(C)NP(=O)(CO[C@H](C)Cn1cnc2c(N)ncnc21)NC(C)(C)C(=O)OC(C)C` [Example 43, Diisopropyl 2,2′-(((((1-(6-amino-9H-purin-9-yl)propan-2-yl)oxy)methyl)phosphoryl)bis(azanediyl))(R)-bis(2-methylpropanoate)], the kinetic solubility at 24 h worked out at 53 µg/mL (≈ 97.9 µM). This solubility kinetic at 24 h and that of the molecule before are within 1.5-fold of each other.

As to `C[C@H](Cn1cnc2c(N)ncnc21)OCP(=O)(NC(C)(C)C(=O)OC1CCC(C)(C)CC1)NC(C)(C)C(=O)OC1CCC(C)(C)CC1` [Example 44, Bis(4,4-dimethylcyclohexyl) 2,2′-(((((1-(6-amino-9H-purin-9-yl)propan-2-yl)oxy)methyl)phosphoryl)bis(azanediyl))(R)-bis(2-methylpropanoate)], the kinetic solubility at 24 h came to 10 µg/mL (≈ 14.8 µM).

Turning to `C[C@H](Cn1cnc2c(N)ncnc21)OCP(=O)(NC(C)(C)C(=O)OCC1CCCC1)NC(C)(C)C(=O)OCC1CCCC1` [Example 45, Bis(cyclopentylmethyl) 2,2′-(((((1-(6-amino-9H-purin-9-yl)propan-2-yl)oxy)methyl)phosphoryl)bis(azanediyl))(R)-bis(2-methylpropanoate)], the kinetic solubility at 24 h worked out at 64 µg/mL (≈ 103 µM).

Molecule `C[C@H](Cn1cnc2c(N)ncnc21)OCP(=O)(NC(C)(C)C(=O)OC1CCC1)NC(C)(C)C(=O)OC1CCC1` [Example 47, Dicyclobutyl 2,2′-(((((1-(6-amino-9H-purin-9-yl)propan-2-yl)oxy)methyl)phosphoryl)bis(azanediyl))(R)-bis(2-methylpropanoate)] returned a kinetic solubility at 24 h of 72 µg/mL (≈ 127 µM).

Molecule `CC(C)CCCCOC(=O)C(C)(C)NP(=O)(CO[C@H](C)Cn1cnc2c(N)ncnc21)NC(C)(C)C(=O)OCCCCC(C)C` [Example 68, Bis(5-methylhexyl) 2,2′-(((((1-(6-amino-9H-purin-9-yl)propan-2-yl)oxy)methyl)phosphoryl)bis(azanediyl))(R)-bis(2-methylpropanoate)] gave a solubility (kinetic) at 24 h of 3 µg/mL (≈ 4.59 µM).

The molecule `CCCC(CCC)COC(=O)C(C)(C)NP(=O)(CO[C@H](C)Cn1cnc2c(N)ncnc21)NC(C)(C)C(=O)OCC(CCC)CCC` [Example 69, Bis(2-propylpentyl) 2,2′-(((((1-(6-amino-9H-purin-9-yl)propan-2-yl)oxy)methyl)phosphoryl)bis(azanediyl))(R)-bis(2-methylpropanoate)] came in with a kinetic solubility at 24 h of 1 µg/mL (≈ 1.47 µM).

In turn, `CCC(CC)COC(=O)C(C)(C)N[P@@](=O)(CO[C@H](C)Cn1cnc2c(N)ncnc21)NC1(C(=O)OCC(CC)CC)CC1` [Example 72, 2-Ethylbutyl 1-(((S)-((((R)-1-(6-amino-9H-purin-9-yl)propan-2-yl)oxy)methyl)((1-(2-ethylbutoxy)-2-methyl-1-oxopropan-2-yl)amino)phosphoryl)amino)cyclopropane-1-carboxylate] displayed a solubility (kinetic) at 24 h of 35 µg/mL (≈ 56.1 µM).
